From PubChem BioAssay AID328 (DTP/NCI, 2004)
Values joined by “and” are separate entries in the source; they are usually repeats but may differ in a detail not shown here. Identical values can stand only once. Toxic doses and inconclusive results are not listed.

System: BDF1 mice, P388 leukemia ip, median survival T/C
Experiment: NCI In Vivo Anticancer Drug Screen. Data for tumor model P388 Leukemia (intraperitoneal) in B6D2F1 (BDF1) mice
Conditions: endpoint: median survival time, higher = longer survival
Method in brief: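 Transplantable tumour in mice; compound vs vehicle dosing; survival scored; ratio of treated to control reported.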

[1] = dose: 100.0 mg/kg/injection, schedule: Q01DX009 (ip), vehicle: saline with Tween-80
[2] = dose: 200.0 mg/kg/injection, schedule: Q01DX009 (ip), vehicle: saline with Tween-80
[3] = dose: 400.0 mg/kg/injection, schedule: Q04DX003 (ip), vehicle: saline with Tween-80
[4] = dose: 400.0 mg/kg/injection, schedule: Q01DX009 (ip), vehicle: saline with Tween-80
[5] = dose: 12.5 mg/kg/injection, schedule: Q01DX009 (ip), vehicle: Klucel (hydroxypropylcellulose) (HPC)
[6] = dose: 25.0 mg/kg/injection, schedule: Q01DX009 (ip), vehicle: Klucel (hydroxypropylcellulose) (HPC)
[7] = dose: 50.0 mg/kg/injection, schedule: Q01DX009 (ip), vehicle: Klucel (hydroxypropylcellulose) (HPC)
[8] = dose: 100.0 mg/kg/injection, schedule: Q04DX003 (ip), vehicle: saline with Tween-80
[9] = dose: 12.5 mg/kg/injection, schedule: Q01DX009 (ip), vehicle: saline with Tween-80
[10] = dose: 25.0 mg/kg/injection, schedule: Q01DX009 (ip), vehicle: saline with Tween-80
[11] = dose: 50.0 mg/kg/injection, schedule: Q01DX009 (ip), vehicle: saline with Tween-80
[12] = dose: 25.0 mg/kg/injection, schedule: Q01DX009 (ip), vehicle: saline
[13] = dose: 200.0 mg/kg/injection, schedule: Q04DX003 (ip), vehicle: saline with Tween-80

Nc1ccn(C2OC(COP(=O)(O)O)C(O)C2O)c(=O)n1 (stereo unspecified)
T/C (dose: 4.2 mg/kg/injection, schedule: Q04DX003 (ip), vehicle: saline with Tween-80): 113 % of control
T/C (dose: 6.3 mg/kg/injection, schedule: Q04DX003 (ip), vehicle: saline with Tween-80): 113 % of control
T/C (dose: 9.6 mg/kg/injection, schedule: Q04DX003 (ip), vehicle: saline): 150 % of control
T/C (dose: 50.0 mg/kg/injection, schedule: Q04DX003 (ip), vehicle: saline): 159 % of control
T/C (dose: 75.0 mg/kg/injection, schedule: Q04DX003 (ip), vehicle: saline): 172 % of control
T/C [1]: 187 % of control
T/C (dose: 115.0 mg/kg/injection, schedule: Q04DX003 (ip), vehicle: saline with Tween-80): 172 % of control
T/C (dose: 175.0 mg/kg/injection, schedule: Q04DX003 (ip), vehicle: saline with Tween-80): 168 % of control
T/C [2]: 112 % of control
T/C (dose: 264.0 mg/kg/injection, schedule: Q04DX003 (ip), vehicle: saline with Tween-80): 181 % of control
T/C [3]: 154 % of control
T/C (dose: 600.0 mg/kg/injection, schedule: Q04DX003 (ip), vehicle: saline with Tween-80): 177 % of control

CCOC(=O)c1ccc(NCC#N)cc1
T/C [1]: 90 % of control
T/C [2]: 100 % of control
T/C [4]: 100 % of control

O=C(N/N=C/c1cccc(S(=O)(=O)O)c1)c1ccncc1
T/C [1]: 97 % of control
T/C [2]: 86 % of control
T/C [4]: 94 % of control

CCNSc1ccccc1
T/C [5]: 109 % of control
T/C [6]: 110 % of control
T/C [7]: 106 % of control

Nc1nc(N)c2nc(CNc3ccc(C(=O)NC(CC(=O)O)C(=O)O)cc3)cnc2n1 (stereo unspecified)
T/C (dose: 66.0 mg/kg/injection, schedule: Q04DX003 (ip), vehicle: saline with Tween-80): 104 % of control
T/C [8]: 100 % of control

COC(=O)C1CN1C(c1ccccc1)(c1ccccc1)c1ccccc1 (stereo unspecified)
T/C [2]: 95 % of control
T/C [4]: 87 % of control

COc1c(C)c2c3c4c1C(=O)C(=CC4=O)NC(=O)/C(C)=C\C=C\C(C)C1OC(C)(C)OC(C1C)C(C)C(OC(C)=O)C(C)C(OC)/C=C/OC(C)(O2)C3=O (stereo unspecified)
T/C [9]: 109 % of control
T/C [10]: 113 % of control
T/C [11]: 105 % of control and 117 % of control

OCC(F)(F)C(F)(F)C(F)(F)F
T/C [1]: 100 % of control
T/C [2]: 104 % of control
T/C [4]: 109 % of control

CCC[As](=O)(O)CCC
T/C (dose: 12.5 mg/kg/injection, schedule: Q01DX009 (ip), vehicle: saline): 115 % of control
T/C [12]: 110 % of control
T/C (dose: 33.0 mg/kg/injection, schedule: Q01DX009 (ip), vehicle: saline): 100 % of control
T/C (dose: 75.0 mg/kg/injection, schedule: Q01DX009 (ip), vehicle: saline): 120 % of control

COc1cccc(N)c1N
T/C (dose: 50.0 mg/kg/injection, schedule: Q01DX009 (ip), vehicle: suspension in saline): 124 % of control
T/C (dose: 200.0 mg/kg/injection, schedule: Q01DX009 (ip), vehicle: suspension in saline): 98 % of control

Cn1c(CC(O)(C(F)(F)Cl)C(F)(F)Cl)cc(=O)n1-c1ccccc1
T/C [8]: 100 % of control
T/C [13]: 100 % of control

C1CN2CCN1CC2.[Cl][Ni+][Cl]
T/C (dose: 0.78 mg/kg/injection, schedule: Q01DX009 (ip), vehicle: saline): 103 % of control
T/C (dose: 1.56 mg/kg/injection, schedule: Q01DX009 (ip), vehicle: saline): 92 % of control and 99 % of control
T/C (dose: 3.12 mg/kg/injection, schedule: Q01DX009 (ip), vehicle: saline): 99 % of control and 103 % of control
T/C (dose: 6.25 mg/kg/injection, schedule: Q01DX009 (ip), vehicle: saline): 100 % of control and 101 % of control

O=S(=O)(/N=C1C=C/C(=N\S(=O)(=O)c2ccccc2)C(Sc2ccccc2)=C\1)c1ccccc1
T/C (dose: 50.0 mg/kg/injection, schedule: Q01DX001 (ip), vehicle: saline with Tween-80): 104 % of control
T/C (dose: 100.0 mg/kg/injection, schedule: Q01DX001 (ip), vehicle: saline with Tween-80): 90 % of control
T/C (dose: 200.0 mg/kg/injection, schedule: Q01DX001 (ip), vehicle: saline with Tween-80): 122 % of control

CSc1cccc(NC(=O)N2CCN(c3ccccc3)CC2)c1
T/C (dose: 12.5 mg/kg/injection, schedule: Q01DX009 (ip), vehicle: DMSO): 93 % of control
T/C (dose: 25.0 mg/kg/injection, schedule: Q01DX009 (ip), vehicle: DMSO): 94 % of control

Nc1cc2ccccc2c(O)c1O
T/C (dose: 75.0 mg/kg/injection, schedule: Q04DX003 (ip), vehicle: saline sonified): 100 % of control
T/C (dose: 150.0 mg/kg/injection, schedule: Q04DX003 (ip), vehicle: saline sonified): 111 % of control
T/C (dose: 300.0 mg/kg/injection, schedule: Q04DX003 (ip), vehicle: saline sonified): 94 % of control

NC(=S)N/N=C/c1cc(-c2cccc(N)c2)ccn1
T/C [9]: 154 % of control
T/C [10]: 162 % of control
T/C [11]: 211 % of control
T/C (dose: 75.0 mg/kg/injection, schedule: Q01DX009 (ip), vehicle: saline with Tween-80): 178 % of control

COc1cc(OC)cc(OC)c1
T/C (dose: 40.0 mg/kg/injection, schedule: Q01DX009 (ip), vehicle: Klucel (hydroxypropylcellulose) (HPC)): 108 % of control
T/C (dose: 80.0 mg/kg/injection, schedule: Q01DX009 (ip), vehicle: Klucel (hydroxypropylcellulose) (HPC)): 100 % of control
T/C (dose: 160.0 mg/kg/injection, schedule: Q01DX009 (ip), vehicle: Klucel (hydroxypropylcellulose) (HPC)): 106 % of control

CC1(CCC(=O)/C=C/c2ccccc2)CCC/C(=C/c2ccccc2)C1=O (stereo unspecified)
T/C [5]: 110 % of control
T/C [6]: 115 % of control
T/C [7]: 110 % of control
T/C (dose: 75.0 mg/kg/injection, schedule: Q01DX009 (ip), vehicle: Klucel (hydroxypropylcellulose) (HPC)): 100 % of control
T/C (dose: 115.0 mg/kg/injection, schedule: Q01DX009 (ip), vehicle: Klucel (hydroxypropylcellulose) (HPC)): 100 % of control
T/C (dose: 170.0 mg/kg/injection, schedule: Q01DX009 (ip), vehicle: Klucel (hydroxypropylcellulose) (HPC)): 95 % of control

CN(C)c1ccc2c(c1)Cc1cc(N=C3C=CC(=O)O3)ccc1-2
T/C (dose: 1.56 mg/kg/injection, schedule: Q01DX009 (ip), vehicle: Klucel (hydroxypropylcellulose) (HPC)): 109 % of control
T/C (dose: 3.12 mg/kg/injection, schedule: Q01DX009 (ip), vehicle: Klucel (hydroxypropylcellulose) (HPC)): 100 % of control
T/C (dose: 6.25 mg/kg/injection, schedule: Q01DX009 (ip), vehicle: Klucel (hydroxypropylcellulose) (HPC)): 90 % of control
T/C [12]: 92 % of control
T/C (dose: 50.0 mg/kg/injection, schedule: Q01DX009 (ip), vehicle: saline): 100 % of control

Cc1n(CC(C)C)c2c([n+]1C)C(=O)c1ccccc1C2=O
T/C (dose: 0.25 mg/kg/injection, schedule: Q01DX010 (ip), vehicle: saline): 90 % of control
T/C (dose: 0.5 mg/kg/injection, schedule: Q01DX010 (ip), vehicle: saline): 90 % of control
T/C (dose: 1.0 mg/kg/injection, schedule: Q01DX009 (ip), vehicle: saline): 105 % of control
T/C (dose: 1.0 mg/kg/injection, schedule: Q01DX010 (ip), vehicle: saline): 90 % of control
T/C (dose: 2.0 mg/kg/injection, schedule: Q01DX009 (ip), vehicle: saline): 120 % of control
T/C (dose: 2.0 mg/kg/injection, schedule: Q01DX010 (ip), vehicle: saline): 120 % of control

CCCCOB(/C=C/Sc1ccccc1)OCCCC
T/C [1]: 120 % of control
T/C [8]: 115 % of control
T/C (dose: 132.0 mg/kg/injection, schedule: Q01DX009 (ip), vehicle: saline with Tween-80): 118 % of control
T/C [13]: 120 % of control
T/C (dose: 300.0 mg/kg/injection, schedule: Q01DX009 (ip), vehicle: saline with Tween-80): 122 % of control
T/C [3]: 110 % of control
